# Values quoted from earlier work as cited in patent publication US6986763B2, “Methods and compositions usable in cataract surgery” (PHACOTREAT AB, priority 2001, dated 2006).
# Tests used:
# lens epithelial cells [1] = conditions: in vitro
# lens epithelial cells [2] = conditions: cadaver eyes; for separation of lens epithelial cells: agent in irrigation solution
Compound,inhibiting lens epithelial cells proliferation (lens epithelial cells [1]),separation of lens epithelial cells (lens epithelial cells [2]),damage to the zonules (lens epithelial cells [2]; 2% solution in irrigation solution)
COc1cccc2c1C(=O)c1c(O)c3c(c(O)c1C2=O)C[C@@](O)(C(C)=O)C[C@@H]3O[C@H]1C[C@H](N)[C@H](O)[C@H](C)O1 [daunomycin/daunorubicin],effective,,
CO[C@@]12[C@H](COC(N)=O)C3=C(C(=O)C(C)=C(N)C3=O)N1C[C@@H]1N[C@@H]12 [mitomycin],effective,,
CN(Cc1cnc2nc(N)nc(N)c2n1)c1ccc(C(=O)N[C@@H](CCC(=O)O)C(=O)O)cc1 [methotrexate],effective,,
COc1cccc2c1C(=O)c1c(O)c3c(c(O)c1C2=O)C[C@@](O)(C(=O)CO)C[C@@H]3O[C@H]1C[C@H](N)[C@H](O)[C@H](C)O1 [doxorubicin],effective,,
CC(=O)O[C@H]1C(=O)[C@@]2(C)[C@H]([C@H](OC(=O)c3ccccc3)[C@]3(O)C[C@H](OC(=O)[C@H](O)[C@@H](NC(=O)c4ccccc4)c4ccccc4)C(C)=C1C3(C)C)[C@]1(OC(C)=O)CO[C@@H]1C[C@@H]2O [taxol],effective,,
"O=C(O)CN(CCN(CC(=O)O)CC(=O)O)CC(=O)O [EDTA, Ethylenediamine tetraacetic acid]",,the anterior lens epithelial cells could be separated,
trypsin,,lens epithelial cells were stripped in places,the zonules were damaged
COc1cc2c(c(OC)c1OC)-c1ccc(OC)c(=O)cc1[C@@H](NC(C)=O)CC2 [colchicines],effective,,
O=c1[nH]cc(F)c(=O)[nH]1 [5-fluorouracil],effective,,
